The structures appear in SMILES notation.

For the assay, the target named is full-length recombinant human FYN A (Homo sapiens (Human), UniProt P06241). The experiment in a line: ADP-Glo Kinase Assay of FYN kinase inhibition. As to conditions: primary screen, initial compounds. It counts as biochemical. Summed up:
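GST-tagged full-length FYN A (baculovirus, Sf9) at 3 pg preincubated 30 min RT with compound (10-point 3-fold series from 10 μM) in Tris pH 7.5/MgCl2 buffer. 12-mer tyrosine peptide plus 12.5 pmol ATP added, 90 min RT; ADP measured by ADP-Glo luminescence, IC50 from dose-response.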
(In general: In ADP-Glo the light output rises with the ADP produced.)

full-length recombinant human FYN A, sequence (P06241 whole entry): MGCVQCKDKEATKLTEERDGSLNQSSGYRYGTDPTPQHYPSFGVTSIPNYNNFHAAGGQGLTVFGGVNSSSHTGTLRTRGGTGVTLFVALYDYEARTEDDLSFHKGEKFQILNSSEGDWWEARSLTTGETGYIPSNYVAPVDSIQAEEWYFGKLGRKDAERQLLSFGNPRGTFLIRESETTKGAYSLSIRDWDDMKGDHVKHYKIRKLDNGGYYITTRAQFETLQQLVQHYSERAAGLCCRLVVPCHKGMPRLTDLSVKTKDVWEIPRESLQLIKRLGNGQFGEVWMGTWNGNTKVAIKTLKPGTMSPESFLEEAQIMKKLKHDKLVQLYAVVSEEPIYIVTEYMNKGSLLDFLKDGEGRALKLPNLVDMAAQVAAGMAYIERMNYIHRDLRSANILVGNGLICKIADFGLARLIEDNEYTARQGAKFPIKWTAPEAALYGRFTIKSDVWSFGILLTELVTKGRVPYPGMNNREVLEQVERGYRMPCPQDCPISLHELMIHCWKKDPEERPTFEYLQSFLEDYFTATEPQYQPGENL

As to `COc1ccc(-c2cnc(N)c(-c3cc(OC)c(OC)c(OC)c3)c2)cn1` [382_0087_0311, 5-(6-methoxy-3-pyridyl)-3-(3,4,5-trimethoxyphenyl) pyridin-2-amine], the IC50 (as a rule, the concentration that inhibits the measured activity by half) stood at 1060 nM. `COc1cc(-c2cc(-c3cccc(F)c3)cnc2N)cc(OC)c1OC` [382_0087_0313, 5-(3-fluorophenyl)-3-(3,4,5-trimethoxy-phenyl)pyridin-2-amine]: the IC50 came out at 1520 nM. The value for `COc1cc(-c2cc(-c3cc(C)c(O)c(C)c3)cnc2N)cc(OC)c1OC` [382_0087_0315, 4-[6-amino-5-(3,4,5-trimethoxyphenyl)-3-pyridyl]-2,6-dimethyl-phenol] was 712 nM; that for `COc1cc(-c2cc(-c3ccc(N)cc3)cnc2N)cc(OC)c1OC` [382_0087_0333, 5-(4-aminophenyl)-3-(3,4,5-trimethoxy-phenyl)pyridin-2-amine] was 971 nM; that for `COc1cc(-c2cc(-c3ccc(F)cc3)cnc2N)cc(OC)c1OC` [382_0087_0339, 5-(4-fluoro-phenyl)-3-(3,4,5-trimethoxy-phenyl)pyridin-2-amine] was 2860 nM. The same measure for `COc1cc(-c2cc(-c3ccoc3)cnc2N)cc(OC)c1OC` [382_0087_0343, 5-(3-furyl)-3-(3,4,5-trimethoxy-phenyl)pyridin-2-amine]: 12100 nM; for `COc1cc(-c2cc(-c3ccc(C(N)=O)cc3)cnc2N)cc(OC)c1OC` [382_0087_0346, 4-[6-amino-5-(3,4,5-trimethoxy-phenyl)-3-pyridyl]benzamide]: 400 nM. Consider `COc1cccc(-c2cnc(N)c(-c3cc(OC)c(OC)c(OC)c3)c2)c1` [382_0087_4140, 5-(3-methoxyphenyl)-3-(3,4,5-trimethoxyphenyl) pyridin-2-amine], for which the IC50 was 9500 nM. Consider `COc1cc(-c2cc(-c3cccc(NS(C)(=O)=O)c3)cnc2N)cc(OC)c1OC` [382_0087_6488, N-[3-[6-amino-5-(3,4,5-trimethoxy-phenyl)-3-pyridyl]phenyl] methane-sulfonamide], for which the half-inhibitory concentration (IC50) amounted to 525 nM.

In the case of `COc1cc(-c2cc(-c3ccc(O)cc3)cnc2N)cc(OC)c1OC` [382_0087_7249, 4-[6-amino-5-(3,4,5-trimethoxy-phenyl)-3-pyridyl]phenol], the IC50 is 1730 nM. As for `COc1cc(-c2cc(-c3ccc(C(=O)NC4CC4)cc3)cnc2N)cc(OC)c1OC` [382_0087_7489, 4-[6-amino-5-(3,4,5-trimethoxy-phenyl)-3-pyridyl]-N-cyclopropyl-benzamide], the IC50 worked out at 507 nM.

Regarding `CN(C)CCCOc1ccc(-c2cnc(N)c(-c3cccc(N(C)C)c3)c2)cn1` [382_0135_0002, 3-[3-(dimethylamino)phenyl]-5-[6-[3-(dimethyl-amino)propoxy]-3-pyridyl]pyridin-2-amine], the IC50 stood at 4660 nM.

On to `CN(C)c1cccc(-c2cc(-c3cccnc3)cnc2N)c1` [382_0135_0071, 3-[3-(dimethyl-amino)phenyl]-5-(3-pyridyl)pyridin-2-amine], for which the IC50 is 7110 nM. For `COc1ccc(-c2cnc(N)c(-c3cccc(N(C)C)c3)c2)cc1OC` [382_0135_0079, 5-(3,4-dimethoxy-phenyl)-3-[3-(dimethylamino)phenyl]pyridin-2-amine], the IC50 was found to be 5050 nM. For `COc1cc(-c2cnc(N)c(-c3cccc(N(C)C)c3)c2)cc(OC)c1OC` [382_0135_0087, 3-[3-(dimethyl-amino)phenyl]-5-(3,4,5-trimethoxy-phenyl)pyridin-2-amine], the IC50 amounted to 3130 nM. For `CN(C)c1cccc(-c2cc(-c3cccc(C(=O)NCCO)c3)cnc2N)c1` [382_0135_0192, 3-[6-amino-5-[3-(dimethylamino)phenyl]-3-pyridyl]-N-(2-hydroxyethyl) benzamide], the IC50 is 3570 nM. For the molecule `CN1CCN(C(=O)c2cccc(-c3cnc(N)c(-c4cccc(N(C)C)c4)c3)c2)CC1` [382_0135_0200, [3-[6-amino-5-[3-(dimethylamino)phenyl]-3-pyridyl]phenyl]-(4-methyl-piperazin-1-yl)methanone], the IC50 was found to be 4440 nM. Take `CN(C)c1cccc(-c2cc(-c3cccc(CO)c3)cnc2N)c1` [382_0135_0291, [3-[6-amino-5-[3-(dimethylamino)phenyl]-3-pyridyl]phenyl] methanol]: the IC50 was determined as 2700 nM.

Consider `COc1cc(-c2cnc(N)c(-c3cccc(N(C)C)c3)c2)ccc1O` [382_0135_0314, 4-[6-amino-5-[3-(dimethylamino)phenyl]-3-pyridyl]-2-methoxy-phenol], for which the IC50 stood at 2110 nM. Take `Cc1cc(-c2cnc(N)c(-c3cccc(N(C)C)c3)c2)cc(C)c1O` [382_0135_0315, 4-[6-amino-5-[3-(dimethylamino)phenyl]-3-pyridyl]-2,6-dimethyl-phenol]: the IC50 amounted to 4200 nM. The value for `CN(C)c1cccc(-c2cc(-c3cccc(C(N)=O)c3)cnc2N)c1` [382_0135_0347, 3-[6-amino-5-[3-(dimethylamino)phenyl]-3-pyridyl] benzamide] was 3520 nM; that for `Nc1ncc(-c2ccc(N3CCOCC3)cc2)cc1-c1cccc(O)c1` [382_0284_0001, 3-[2-amino-5-(4-morpholino-phenyl)-3-pyridyl]phenol] was 4640 nM. Take `COc1ccc(-c2cnc(N)c(-c3cccc(O)c3)c2)cc1OC` [382_0284_0079, 3-[2-amino-5-(3,4-dimethoxy-phenyl)-3-pyridyl]phenol]: the IC50 stood at 2000 nM. In the case of `COc1cc(-c2cnc(N)c(-c3cccc(O)c3)c2)cc(OC)c1OC` [382_0284_0087, 3-[2-amino-5-(3,4,5-trimethoxy-phenyl)-3-pyridyl]phenol], the IC50 came to 1020 nM.

For `COc1ccc(-c2cnc(N)c(-c3ccc(CO)cc3)c2)cc1OC` [382_0285_0079, [4-[2-amino-5-(3,4-dimethoxy-phenyl)-3-pyridyl]phenyl] methanol], the IC50 is 5130 nM. For the molecule `Cc1cc(-c2cnc(N)c(-c3ccc(CO)cc3)c2)cc(C)c1O` [382_0285_0315, 4-[6-amino-5-[4-(hydroxymethyl)phenyl]-3-pyridyl]-2,6-dimethyl-phenol], the IC50 stood at 4640 nM.

Regarding `COc1cc(-c2cc(-c3ccccc3)cnc2N)ccc1O` [382_0314_0061, 4-(2-amino-5-phenyl-3-pyridyl)-2-methoxy-phenol], the IC50 worked out at 1480 nM. With `COc1cc(-c2cc(-c3cc(OC)c(OC)c(OC)c3)cnc2N)ccc1O` [382_0314_0087, 4-[2-amino-5-(3,4,5-trimethoxy-phenyl)-3-pyridyl]-2-methoxy-phenol], the IC50 was 80.6 nM. As to `COc1cc(-c2cc(-c3ccc(F)c(Cl)c3)cnc2N)ccc1O` [382_0314_0164, 4-[2-amino-5-(3-chloro-4-fluoro-phenyl)-3-pyridyl]-2-methoxy-phenol], the IC50 was 11300 nM.

For the molecule `COc1cc(-c2cc(-c3ccc(S(C)(=O)=O)cc3)cnc2N)ccc1O` [382_0314_0174, 4-[2-amino-5-(4-methylsulfonyl-phenyl)-3-pyridyl]-2-methoxy-phenol], the IC50 amounted to 349 nM. Turning to `COc1cc(-c2cc(-c3cccc(Cl)c3)cnc2N)ccc1O` [382_0314_0279, 4-[2-amino-5-(3-chlorophenyl)-3-pyridyl]-2-methoxy-phenol], the IC50 was determined as 3510 nM. The same measure for `COc1ccc(-c2cnc(N)c(-c3ccc(O)c(OC)c3)c2)cc1` [382_0314_0280, 4-[2-amino-5-(4-methoxyphenyl)-3-pyridyl]-2-methoxy-phenol]: 4160 nM.

The record behind these values is patent US10688093B2, “Methods, compositions, and uses of novel Fyn kinase inhibitors” (priority 2015, dated 2020).
